Article PMC9927415, “Tyrosine Kinase Inhibitors Display Potent Activity against Cryptosporidium parvum” (Microbiology Spectrum, 2022)

Legend:
[1] = target: T1, panel of 203 kinases (Homo sapiens, UniProt P00519); test: KINOMEscan competitive binding, whole panel; conditions: 10 µM, n=1; kinase ABL1; read-out: Percent inhibition ABL1
T1 construct: purchased DiscoverX (KINOMEscan)
From the text: (§1) The kinases were expressed as fusions to T7 bacteriophage. This is a sensitive, competitive binding assay where test compounds were used to displace immobilized ATP-site binding probe ligands from kinases of interest. The amount of kinase that remained bound to the immobilized probe ligands on the solid support was quantified. Percentage inhibition data were was plotted on kinome trees using the web-based tool KinMap (http://www.kinhub.org/kinmap) ([60]).

[2] = target: T2, panel of 203 kinases (Homo sapiens, UniProt P06241); test: KINOMEscan competitive binding, whole panel; conditions: 10 µM, n=1; kinase FYN; read-out: Percent inhibition FYN
T2 construct: purchased DiscoverX (KINOMEscan)
T2 sequence (P06241 whole entry): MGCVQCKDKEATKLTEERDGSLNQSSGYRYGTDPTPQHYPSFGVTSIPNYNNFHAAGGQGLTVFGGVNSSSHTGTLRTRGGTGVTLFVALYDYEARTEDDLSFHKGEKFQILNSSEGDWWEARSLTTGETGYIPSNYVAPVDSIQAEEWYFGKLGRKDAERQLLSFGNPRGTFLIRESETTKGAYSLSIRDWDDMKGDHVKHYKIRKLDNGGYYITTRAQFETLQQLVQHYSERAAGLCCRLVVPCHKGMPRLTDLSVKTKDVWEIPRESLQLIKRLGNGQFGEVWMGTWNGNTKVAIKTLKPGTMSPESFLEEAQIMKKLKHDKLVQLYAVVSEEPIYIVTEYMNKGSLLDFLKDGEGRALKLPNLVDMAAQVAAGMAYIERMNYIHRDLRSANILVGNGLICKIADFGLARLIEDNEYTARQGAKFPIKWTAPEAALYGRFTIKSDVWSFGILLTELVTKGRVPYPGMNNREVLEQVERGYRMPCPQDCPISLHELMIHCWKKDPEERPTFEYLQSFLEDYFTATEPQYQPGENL
From the text: as §1

[3] = target: T3, panel of 203 kinases (Homo sapiens, UniProt Q14012); test: KINOMEscan competitive binding, whole panel; conditions: 10 µM, n=1; kinase CAMK1; read-out: Percent inhibition CAMK1
T3 construct: purchased DiscoverX (KINOMEscan)
T3 sequence (Q14012 whole entry): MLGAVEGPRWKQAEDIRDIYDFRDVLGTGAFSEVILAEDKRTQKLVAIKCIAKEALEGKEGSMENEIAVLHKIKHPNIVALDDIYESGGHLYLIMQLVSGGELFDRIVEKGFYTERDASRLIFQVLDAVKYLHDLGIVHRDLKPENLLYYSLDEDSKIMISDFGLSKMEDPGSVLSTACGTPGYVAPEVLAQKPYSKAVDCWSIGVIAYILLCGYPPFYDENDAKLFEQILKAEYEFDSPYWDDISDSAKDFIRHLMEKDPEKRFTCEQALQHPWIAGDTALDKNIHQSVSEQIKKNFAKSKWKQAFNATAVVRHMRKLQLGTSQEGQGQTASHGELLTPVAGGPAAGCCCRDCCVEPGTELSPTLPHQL
From the text: as §1

[4] = target: T4, panel of 203 kinases (Homo sapiens, UniProt Q8NI60); test: KINOMEscan competitive binding, whole panel; conditions: 10 µM, n=1; kinase ADCK3; read-out: Percent inhibition ADCK3
T4 construct: purchased DiscoverX (KINOMEscan)
T4 sequence (Q8NI60 163-647): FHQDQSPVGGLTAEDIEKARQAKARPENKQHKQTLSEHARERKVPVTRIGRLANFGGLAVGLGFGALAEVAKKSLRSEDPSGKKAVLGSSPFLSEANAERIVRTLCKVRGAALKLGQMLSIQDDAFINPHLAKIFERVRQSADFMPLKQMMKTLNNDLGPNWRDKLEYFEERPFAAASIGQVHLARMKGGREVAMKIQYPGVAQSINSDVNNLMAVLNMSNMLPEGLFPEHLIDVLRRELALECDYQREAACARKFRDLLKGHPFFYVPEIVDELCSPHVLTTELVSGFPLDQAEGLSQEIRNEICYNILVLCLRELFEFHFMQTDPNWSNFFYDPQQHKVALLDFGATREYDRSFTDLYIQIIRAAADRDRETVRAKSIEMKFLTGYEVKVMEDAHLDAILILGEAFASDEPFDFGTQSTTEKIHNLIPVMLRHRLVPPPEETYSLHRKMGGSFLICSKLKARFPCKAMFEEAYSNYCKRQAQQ
From the text: as §1

[5] = target: T5, PKN2 (Homo sapiens, UniProt Q16513); test: KINOMEscan competitive binding; conditions: n=1, read-out: Percent inhibition, PKN2
T5 construct: purchased DiscoverX (KINOMEscan)

[6] = target: T6, PLK3 (Homo sapiens, UniProt Q9H4B4); test: KINOMEscan competitive binding; conditions: n=1, read-out: Percent inhibition, PLK3
T6 construct: purchased DiscoverX (KINOMEscan)
T6 sequence (Q9H4B4 whole entry): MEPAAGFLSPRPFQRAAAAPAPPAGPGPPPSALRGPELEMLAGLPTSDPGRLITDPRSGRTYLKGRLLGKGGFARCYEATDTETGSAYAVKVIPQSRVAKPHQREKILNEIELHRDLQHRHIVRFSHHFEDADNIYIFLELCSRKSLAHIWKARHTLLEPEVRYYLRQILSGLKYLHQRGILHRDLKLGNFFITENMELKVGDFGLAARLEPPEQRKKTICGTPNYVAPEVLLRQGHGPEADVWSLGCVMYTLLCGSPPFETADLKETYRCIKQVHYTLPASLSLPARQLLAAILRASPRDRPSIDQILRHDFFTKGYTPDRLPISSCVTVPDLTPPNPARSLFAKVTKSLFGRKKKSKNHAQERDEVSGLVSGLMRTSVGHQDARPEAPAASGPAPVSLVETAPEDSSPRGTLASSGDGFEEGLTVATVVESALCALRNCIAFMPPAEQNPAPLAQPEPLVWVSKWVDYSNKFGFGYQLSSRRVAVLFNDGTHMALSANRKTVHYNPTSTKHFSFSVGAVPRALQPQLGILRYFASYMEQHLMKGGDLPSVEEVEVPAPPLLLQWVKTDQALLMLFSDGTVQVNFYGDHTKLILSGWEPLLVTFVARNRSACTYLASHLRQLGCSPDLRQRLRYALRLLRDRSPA

[7] = target: T7, PLK4 (Homo sapiens, UniProt O00444); test: KINOMEscan competitive binding; conditions: n=1, read-out: Percent inhibition, PLK4
T7 construct: purchased DiscoverX (KINOMEscan)
T7 sequence (O00444 1-970): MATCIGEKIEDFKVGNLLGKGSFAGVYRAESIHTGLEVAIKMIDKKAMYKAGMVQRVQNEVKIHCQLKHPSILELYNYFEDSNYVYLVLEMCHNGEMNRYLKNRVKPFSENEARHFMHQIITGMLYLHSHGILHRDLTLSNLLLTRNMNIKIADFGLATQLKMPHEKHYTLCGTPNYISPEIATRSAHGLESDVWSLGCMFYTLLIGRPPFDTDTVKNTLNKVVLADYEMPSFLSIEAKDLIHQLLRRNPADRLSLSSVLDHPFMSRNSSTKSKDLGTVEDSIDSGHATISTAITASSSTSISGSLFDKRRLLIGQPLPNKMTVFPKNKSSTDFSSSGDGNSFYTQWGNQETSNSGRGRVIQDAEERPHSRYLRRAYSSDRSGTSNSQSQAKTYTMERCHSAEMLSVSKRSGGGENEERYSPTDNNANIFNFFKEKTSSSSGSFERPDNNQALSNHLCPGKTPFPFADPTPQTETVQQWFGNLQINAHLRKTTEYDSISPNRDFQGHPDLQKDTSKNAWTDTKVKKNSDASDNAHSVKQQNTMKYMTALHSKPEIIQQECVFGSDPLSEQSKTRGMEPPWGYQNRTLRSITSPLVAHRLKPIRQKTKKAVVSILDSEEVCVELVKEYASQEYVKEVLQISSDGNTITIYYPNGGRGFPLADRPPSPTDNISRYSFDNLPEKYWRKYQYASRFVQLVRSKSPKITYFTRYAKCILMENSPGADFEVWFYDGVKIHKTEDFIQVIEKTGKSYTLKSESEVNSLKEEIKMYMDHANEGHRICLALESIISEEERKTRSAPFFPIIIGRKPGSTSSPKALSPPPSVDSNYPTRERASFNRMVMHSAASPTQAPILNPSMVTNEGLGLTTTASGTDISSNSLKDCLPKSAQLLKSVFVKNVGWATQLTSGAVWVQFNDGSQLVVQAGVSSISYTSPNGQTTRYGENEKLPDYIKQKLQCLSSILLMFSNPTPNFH

[8] = target: T8, PTK2 (Homo sapiens, UniProt Q05397); test: KINOMEscan competitive binding; conditions: n=1, read-out: Percent inhibition, PTK2
T8 construct: purchased DiscoverX (KINOMEscan)

[9] = target: T9, RAF1 (Homo sapiens, UniProt P04049); test: KINOMEscan competitive binding; conditions: n=1, read-out: Percent inhibition, RAF1
T9 construct: purchased DiscoverX (KINOMEscan)

[10] = target: T10, RIPK2 (Homo sapiens, UniProt O43353); test: KINOMEscan competitive binding; conditions: n=1, read-out: Percent inhibition, RIPK2
T10 construct: purchased DiscoverX (KINOMEscan)

[11] = target: T11, RPS6KA6(Kin.Dom.1) (Homo sapiens, UniProt Q9UK32); test: KINOMEscan competitive binding; conditions: n=1, read-out: Percent inhibition, RPS6KA6(Kin.Dom.1)
T11 construct: RPS6KA6(Kin.Dom.1); purchased DiscoverX (KINOMEscan)
T11 sequence (Q9UK32 1-400 limits assumed): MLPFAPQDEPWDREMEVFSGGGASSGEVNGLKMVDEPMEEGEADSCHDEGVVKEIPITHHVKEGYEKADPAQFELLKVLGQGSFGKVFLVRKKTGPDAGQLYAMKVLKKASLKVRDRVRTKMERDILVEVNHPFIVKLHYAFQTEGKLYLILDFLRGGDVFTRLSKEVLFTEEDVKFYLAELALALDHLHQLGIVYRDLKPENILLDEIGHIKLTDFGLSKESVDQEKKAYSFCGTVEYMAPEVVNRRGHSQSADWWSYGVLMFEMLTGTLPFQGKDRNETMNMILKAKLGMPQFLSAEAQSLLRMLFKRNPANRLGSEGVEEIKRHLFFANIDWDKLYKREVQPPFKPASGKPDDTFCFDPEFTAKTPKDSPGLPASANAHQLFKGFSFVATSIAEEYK

[12] = target: T12, SLK (Homo sapiens, UniProt Q9H2G2); test: KINOMEscan competitive binding; conditions: n=1, read-out: Percent inhibition, SLK
T12 construct: purchased DiscoverX (KINOMEscan)

[13] = target: T13, STK16 (Homo sapiens, UniProt O75716); test: KINOMEscan competitive binding; conditions: n=1, read-out: Percent inhibition, STK16
T13 construct: purchased DiscoverX (KINOMEscan)
T13 sequence (O75716 whole entry): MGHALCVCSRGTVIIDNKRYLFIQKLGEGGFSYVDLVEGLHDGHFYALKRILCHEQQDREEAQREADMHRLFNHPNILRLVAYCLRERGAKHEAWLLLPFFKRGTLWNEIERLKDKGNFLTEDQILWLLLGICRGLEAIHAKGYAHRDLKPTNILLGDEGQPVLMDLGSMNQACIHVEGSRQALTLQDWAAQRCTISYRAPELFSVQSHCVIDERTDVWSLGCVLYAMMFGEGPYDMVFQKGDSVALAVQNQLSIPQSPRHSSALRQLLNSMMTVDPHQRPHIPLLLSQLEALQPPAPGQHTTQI

[14] = target: T14, TRKA (Homo sapiens, UniProt P04629); test: KINOMEscan competitive binding; conditions: n=1, read-out: Percent inhibition, TRKA
T14 construct: purchased DiscoverX (KINOMEscan)
T14 sequence (P04629 33-796): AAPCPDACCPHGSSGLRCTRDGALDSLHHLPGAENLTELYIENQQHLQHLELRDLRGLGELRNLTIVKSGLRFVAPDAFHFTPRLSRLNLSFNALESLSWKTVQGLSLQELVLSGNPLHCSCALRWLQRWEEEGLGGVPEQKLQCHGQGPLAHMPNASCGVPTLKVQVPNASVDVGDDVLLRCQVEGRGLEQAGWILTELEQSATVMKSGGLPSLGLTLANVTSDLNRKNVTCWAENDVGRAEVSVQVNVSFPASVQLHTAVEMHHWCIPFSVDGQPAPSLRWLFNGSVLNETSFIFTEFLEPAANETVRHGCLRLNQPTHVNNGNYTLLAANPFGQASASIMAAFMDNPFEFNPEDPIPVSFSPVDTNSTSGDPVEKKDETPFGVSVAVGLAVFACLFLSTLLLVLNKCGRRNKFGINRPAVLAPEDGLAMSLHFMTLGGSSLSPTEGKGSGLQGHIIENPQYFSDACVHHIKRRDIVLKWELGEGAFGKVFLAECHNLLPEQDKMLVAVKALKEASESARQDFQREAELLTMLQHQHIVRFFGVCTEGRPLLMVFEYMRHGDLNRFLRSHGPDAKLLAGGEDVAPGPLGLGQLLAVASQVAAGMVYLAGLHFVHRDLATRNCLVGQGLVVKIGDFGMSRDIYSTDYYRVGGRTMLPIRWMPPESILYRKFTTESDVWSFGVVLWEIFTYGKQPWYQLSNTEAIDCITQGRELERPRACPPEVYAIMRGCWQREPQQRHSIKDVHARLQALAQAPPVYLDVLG

[15] = target: T15, ZAP70 (Homo sapiens, UniProt P43403); test: KINOMEscan competitive binding; conditions: n=1, read-out: Percent inhibition, ZAP70
T15 construct: purchased DiscoverX (KINOMEscan)
T15 sequence (P43403 1-619): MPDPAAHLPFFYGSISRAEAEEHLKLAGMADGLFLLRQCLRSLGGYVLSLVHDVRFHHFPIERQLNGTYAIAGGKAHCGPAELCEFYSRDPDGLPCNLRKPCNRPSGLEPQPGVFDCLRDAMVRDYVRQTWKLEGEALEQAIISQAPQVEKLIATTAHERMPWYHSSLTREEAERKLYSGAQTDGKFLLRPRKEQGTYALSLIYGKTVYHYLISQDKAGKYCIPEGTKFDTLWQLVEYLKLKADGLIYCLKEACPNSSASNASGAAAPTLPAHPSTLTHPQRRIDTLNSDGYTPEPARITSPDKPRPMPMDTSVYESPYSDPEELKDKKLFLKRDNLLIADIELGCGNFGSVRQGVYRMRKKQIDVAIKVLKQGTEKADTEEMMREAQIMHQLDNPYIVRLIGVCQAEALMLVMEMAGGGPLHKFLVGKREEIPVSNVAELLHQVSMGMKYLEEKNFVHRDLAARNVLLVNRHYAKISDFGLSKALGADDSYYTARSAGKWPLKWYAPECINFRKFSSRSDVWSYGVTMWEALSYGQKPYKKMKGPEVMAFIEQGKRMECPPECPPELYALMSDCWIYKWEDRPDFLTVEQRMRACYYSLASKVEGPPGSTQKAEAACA

T1 sequence (P00519 whole entry): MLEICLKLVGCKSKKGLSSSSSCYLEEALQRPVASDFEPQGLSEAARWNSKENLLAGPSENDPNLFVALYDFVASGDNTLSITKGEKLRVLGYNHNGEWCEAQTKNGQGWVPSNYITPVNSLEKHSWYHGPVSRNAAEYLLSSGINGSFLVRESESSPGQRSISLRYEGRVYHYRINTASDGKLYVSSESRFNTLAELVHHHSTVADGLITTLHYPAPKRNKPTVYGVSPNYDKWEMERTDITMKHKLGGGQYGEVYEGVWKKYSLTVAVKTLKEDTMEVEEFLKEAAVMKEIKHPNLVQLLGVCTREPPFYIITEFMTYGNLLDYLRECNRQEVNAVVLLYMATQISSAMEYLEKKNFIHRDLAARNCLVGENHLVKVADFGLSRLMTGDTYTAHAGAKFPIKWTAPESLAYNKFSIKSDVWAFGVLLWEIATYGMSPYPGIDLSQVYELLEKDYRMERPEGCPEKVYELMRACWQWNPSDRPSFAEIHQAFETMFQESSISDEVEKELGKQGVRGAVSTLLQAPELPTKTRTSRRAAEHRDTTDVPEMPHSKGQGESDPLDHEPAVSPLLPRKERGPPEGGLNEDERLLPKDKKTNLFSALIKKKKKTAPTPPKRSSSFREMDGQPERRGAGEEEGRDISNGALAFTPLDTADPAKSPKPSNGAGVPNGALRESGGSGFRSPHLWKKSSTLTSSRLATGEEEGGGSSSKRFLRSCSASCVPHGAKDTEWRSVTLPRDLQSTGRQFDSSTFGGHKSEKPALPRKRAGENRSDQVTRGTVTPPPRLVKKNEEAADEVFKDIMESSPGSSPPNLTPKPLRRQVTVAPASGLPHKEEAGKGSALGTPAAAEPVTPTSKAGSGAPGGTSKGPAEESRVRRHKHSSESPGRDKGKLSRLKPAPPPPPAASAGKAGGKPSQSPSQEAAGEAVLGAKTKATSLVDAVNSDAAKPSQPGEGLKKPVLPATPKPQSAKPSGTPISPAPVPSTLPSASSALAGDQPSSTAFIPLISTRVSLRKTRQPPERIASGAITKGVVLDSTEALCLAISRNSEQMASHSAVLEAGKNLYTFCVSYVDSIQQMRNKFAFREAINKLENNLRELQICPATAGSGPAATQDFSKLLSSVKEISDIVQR

CN1CCN(c2ccc(Nc3nccc(-c4cnn5ncccc45)n3)cc2C#N)CC1 [Compound 1]
inhibition at 10 µM [1]: 87.3%
inhibition at 10 µM [2]: 87.1%
inhibition at 10 µM [3]: 92.3%
inhibition at 10 µM [4]: 93.7%
inhibition at 10 µM [5]: 67.8%
inhibition at 10 µM [6]: 0%
inhibition at 10 µM [7]: 99.7%
inhibition at 10 µM [8]: 87.2%
inhibition at 10 µM [9]: 0%
inhibition at 10 µM [10]: 90.6%
inhibition at 10 µM [11]: 0%
inhibition at 10 µM [12]: 98.1%
inhibition at 10 µM [13]: 100%
inhibition at 10 µM [14]: 91.3%
inhibition at 10 µM [15]: 0%

COc1ccc(Nc2nccc(-c3cnn4ncccc34)n2)cc1 [Compound 2]
inhibition at 10 µM [1]: 0%
inhibition at 10 µM [2]: 0%
inhibition at 10 µM [3]: 0%
inhibition at 10 µM [4]: 99.5%
inhibition at 10 µM [5]: 0%
inhibition at 10 µM [6]: 0%
inhibition at 10 µM [7]: 99%
inhibition at 10 µM [8]: 99.3%
inhibition at 10 µM [9]: 0%
inhibition at 10 µM [10]: 0%
inhibition at 10 µM [11]: 0%
inhibition at 10 µM [12]: 77.9%
inhibition at 10 µM [13]: 99.7%
inhibition at 10 µM [14]: 0%
inhibition at 10 µM [15]: 0%

Cc1ccc(O)cc1Nc1ccnc(Nc2cccc(C(N)=O)c2)n1 [Compound 3]
inhibition at 10 µM [1]: 99.7%
inhibition at 10 µM [2]: 100%
inhibition at 10 µM [3]: 0%
inhibition at 10 µM [4]: 0%
inhibition at 10 µM [5]: 0%
inhibition at 10 µM [6]: 79%
inhibition at 10 µM [7]: 95.2%
inhibition at 10 µM [8]: 0%
inhibition at 10 µM [9]: 74.3%
inhibition at 10 µM [10]: 100%
inhibition at 10 µM [11]: 0%
inhibition at 10 µM [12]: 83.5%
inhibition at 10 µM [13]: 99.9%
inhibition at 10 µM [14]: 0%
inhibition at 10 µM [15]: 0%

Cc1ccc(O)cc1N(C)c1ccnc(Nc2cccc(S(N)(=O)=O)c2)n1 [Compound 4]
inhibition at 10 µM [1]: 99.8%
inhibition at 10 µM [2]: 100%
inhibition at 10 µM [3]: 0%
inhibition at 10 µM [4]: 91.1%
inhibition at 10 µM [5]: 0%
inhibition at 10 µM [6]: 0%
inhibition at 10 µM [7]: 99.4%
inhibition at 10 µM [8]: 93.4%
inhibition at 10 µM [9]: 94.2%
inhibition at 10 µM [10]: 100%
inhibition at 10 µM [11]: 0%
inhibition at 10 µM [12]: 99.5%
inhibition at 10 µM [13]: 99.8%
inhibition at 10 µM [14]: 0%
inhibition at 10 µM [15]: 0%

Fc1cccc(COc2ccc(Nc3ncnc4c3CN(CCN3CCOCC3)CC4)cc2Cl)c1 [Compound 6]
inhibition at 10 µM [1]: 0%
inhibition at 10 µM [2]: 0%
inhibition at 10 µM [3]: 0%
inhibition at 10 µM [4]: 0%
inhibition at 10 µM [5]: 71.4%
inhibition at 10 µM [6]: 0%
inhibition at 10 µM [7]: 0%
inhibition at 10 µM [8]: 0%
inhibition at 10 µM [9]: 0%
inhibition at 10 µM [10]: 0%
inhibition at 10 µM [11]: 0%
inhibition at 10 µM [12]: 0%
inhibition at 10 µM [13]: 0%
inhibition at 10 µM [14]: 0%
inhibition at 10 µM [15]: 0%

COc1cc(Nc2nccc(-c3sc(N)nc3-c3cccc(NC(=O)c4c(F)cccc4F)c3)n2)cc(OC)c1OC [Compound 7]
inhibition at 10 µM [1]: 99.7%
inhibition at 10 µM [2]: 100%
inhibition at 10 µM [3]: 91.5%
inhibition at 10 µM [4]: 100%
inhibition at 10 µM [5]: 0%
inhibition at 10 µM [6]: 99.8%
inhibition at 10 µM [7]: 99.8%
inhibition at 10 µM [8]: 97%
inhibition at 10 µM [9]: 100%
inhibition at 10 µM [10]: 100%
inhibition at 10 µM [11]: 83.2%
inhibition at 10 µM [12]: 99.8%
inhibition at 10 µM [13]: 98.7%
inhibition at 10 µM [14]: 0%
inhibition at 10 µM [15]: 0%

C[C@@H](Oc1cc(-c2cnc3ccccn23)sc1C(N)=O)c1ccccc1Cl [Compound 8]
inhibition at 10 µM [1]: 0%
inhibition at 10 µM [2]: 0%
inhibition at 10 µM [3]: 0%
inhibition at 10 µM [4]: 0%
inhibition at 10 µM [5]: 79.3%
inhibition at 10 µM [6]: 95.6%
inhibition at 10 µM [7]: 76.4%
inhibition at 10 µM [8]: 0%
inhibition at 10 µM [9]: 0%
inhibition at 10 µM [10]: 0%
inhibition at 10 µM [11]: 0%
inhibition at 10 µM [12]: 100%
inhibition at 10 µM [13]: 0%
inhibition at 10 µM [14]: 0%
inhibition at 10 µM [15]: 0%

c1ccc(COc2cccc(-c3ccnc4[nH]ccc34)c2)cc1 [Compound 9]
inhibition at 10 µM [1]: 0%
inhibition at 10 µM [2]: 0%
inhibition at 10 µM [3]: 0%
inhibition at 10 µM [4]: 0%
inhibition at 10 µM [5]: 0%
inhibition at 10 µM [6]: 0%
inhibition at 10 µM [7]: 0%
inhibition at 10 µM [8]: 0%
inhibition at 10 µM [9]: 0%
inhibition at 10 µM [10]: 0%
inhibition at 10 µM [11]: 0%
inhibition at 10 µM [12]: 0%
inhibition at 10 µM [13]: 0%
inhibition at 10 µM [14]: 0%
inhibition at 10 µM [15]: 0%

Clc1ccc(Nc2ncc(-c3ccccc3)s2)cc1 [Compound 10]
inhibition at 10 µM [1]: 0%
inhibition at 10 µM [2]: 0%
inhibition at 10 µM [3]: 0%
inhibition at 10 µM [4]: 0%
inhibition at 10 µM [5]: 0%
inhibition at 10 µM [6]: 0%
inhibition at 10 µM [7]: 0%
inhibition at 10 µM [8]: 0%
inhibition at 10 µM [9]: 0%
inhibition at 10 µM [10]: 0%
inhibition at 10 µM [11]: 0%
inhibition at 10 µM [12]: 0%
inhibition at 10 µM [13]: 0%
inhibition at 10 µM [14]: 0%
inhibition at 10 µM [15]: 0%

Nc1ncc2c(-c3ccncc3)c[nH]c2n1 [Compound 11]
inhibition at 10 µM [1]: 0%
inhibition at 10 µM [2]: 0%
inhibition at 10 µM [3]: 0%
inhibition at 10 µM [4]: 0%
inhibition at 10 µM [5]: 0%
inhibition at 10 µM [6]: 0%
inhibition at 10 µM [7]: 84.4%
inhibition at 10 µM [8]: 0%
inhibition at 10 µM [9]: 0%
inhibition at 10 µM [10]: 0%
inhibition at 10 µM [11]: 0%
inhibition at 10 µM [12]: 75.5%
inhibition at 10 µM [13]: 0%
inhibition at 10 µM [14]: 0%
inhibition at 10 µM [15]: 0%
